Measurements reported in article PMC3013012 (The Journal of Biological Chemistry, 2010).
Square brackets hold non-standard residues; d marks the D form. Peptide text beside a SMILES is read from it. Lys(Me3) = C[N+](C)(C)CCCC[C@H](N)C(=O)O; Lys(Me2) = CN(C)CCCC[C@H](N)C(=O)O

Experiments:
human Cbx8 chromodomain = biological target: T1, human Cbx8 chromodomain (Homo sapiens, UniProt Q9HC52); assay: Fluorescence polarization peptide binding
T1 sequence (Q9HC52 8-61): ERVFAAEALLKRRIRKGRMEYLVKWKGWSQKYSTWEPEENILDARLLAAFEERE

human Cbx7 chromodomain = biological target: T2, human Cbx7 chromodomain (Homo sapiens, UniProt O95931); assay: Fluorescence polarization peptide binding
T2 sequence (O95931 8-62): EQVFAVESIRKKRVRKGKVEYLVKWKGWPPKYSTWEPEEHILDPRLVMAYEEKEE

SMILES: CC[C@H](C)[C@H](NC(=O)CNC(=O)[C@H](Cc1c[nH]cn1)NC(=O)[C@@H](NC(=O)[C@H](CO)NC(=O)[C@H](CCCCN(C)C)NC(=O)[C@H](CC(C)C)NC(=O)[C@H](C)NC(=O)[C@H](Cc1ccccc1)NC(=O)CNC(=O)[C@H](CCCNC(=N)N)NC(=O)[C@@H](NC(=O)[C@H](CO)NC(=O)[C@H](CCCCN(C)C)NC(=O)[C@@H](NC(=O)[C@H](C)NC(=O)[C@@H](NC(=O)[C@H](CCC(N)=O)NC(=O)[C@@H](N)CCCNC(=N)N)C(C)C)C(C)C)[C@@H](C)O)[C@@H](C)O)C(=O)N[C@@H](C)C(=O)N[C@H](C(=O)N[C@@H](CCCCN(C)C)C(=O)N[C@@H](CO)C(=O)N[C@H](C(=O)N[C@@H](CC(N)=O)C(=O)O)[C@@H](C)O)[C@@H](C)CC [Kme2(1162,1170,1178)] (H-RQVAV[Lys(Me2)]STRGFAL[Lys(Me2)]STHGIAI[Lys(Me2)]STN-OH)
- Kd (human Cbx8 chromodomain): 180 ± 80 µM
- Kd (human Cbx7 chromodomain): 15 ± 0.5 µM

SMILES: CC[C@H](C)[C@H](NC(=O)CNC(=O)[C@H](Cc1c[nH]cn1)NC(=O)[C@@H](NC(=O)[C@H](CO)NC(=O)[C@H](CCCC[N+](C)(C)C)NC(=O)[C@H](CC(C)C)NC(=O)[C@H](C)NC(=O)[C@H](Cc1ccccc1)NC(=O)CNC(=O)[C@H](CCCNC(=N)N)NC(=O)[C@@H](NC(=O)[C@H](CO)NC(=O)[C@H](CCCC[N+](C)(C)C)NC(=O)[C@@H](NC(=O)[C@H](C)NC(=O)[C@@H](NC(=O)[C@H](CCC(N)=O)NC(=O)[C@@H](N)CCCNC(=N)N)C(C)C)C(C)C)[C@@H](C)O)[C@@H](C)O)C(=O)N[C@@H](C)C(=O)N[C@H](C(=O)N[C@@H](CCCC[N+](C)(C)C)C(=O)N[C@@H](CO)C(=O)N[C@H](C(=O)N[C@@H](CC(N)=O)C(=O)O)[C@@H](C)O)[C@@H](C)CC [Kme3(1162,1170,1178)] (H-RQVAV[Lys(Me3)]STRGFAL[Lys(Me3)]STHGIAI[Lys(Me3)]STN-OH)
- Kd (human Cbx8 chromodomain): 6 ± 2 µM
- Kd (human Cbx7 chromodomain): 1.2 ± 0.2 µM

SMILES: CC[C@H](C)[C@H](NC(=O)CNC(=O)[C@@H](N)Cc1c[nH]cn1)C(=O)N[C@@H](C)C(=O)N[C@H](C(=O)N[C@@H](CCCC[N+](C)(C)C)C(=O)N[C@@H](CO)C(=O)N[C@H](C(=O)N[C@@H](CC(N)=O)C(=O)O)[C@@H](C)O)[C@@H](C)CC [IAIK(1178)S] (H-HGIAI[Lys(Me3)]STN-OH)
- Kd (human Cbx7 chromodomain): 5 ± 0.8 µM
